IC50 data for 20 compounds are collected here from patent US20250206745A1, “PYRROLOPYRIDAZINE DERIVATIVES AND RELATED USES” (NodThera Limited, priority 2023, published 2025).

Assay [1] has as its system IL-1β release upon NLRP3 activation in peripheral blood mononuclear cells (PBMC). Kind of assay: PBMC IC50 Determination Assay. The settings on record: Homo sapiens; inhibition of IL-1β release; PBMC primed with LPS, stimulated with ATP or nigericin; ELISA or HTRF. In kind it is cell-based. As to the method: The compounds of the present disclosure were tested for their inhibitory activity against IL-1β release upon NLRP3 activation in peripheral blood mononuclear cells (PBMC).
Protocol A. PBMC were isolated from buffy coats by density gradient centrifugation on Histopaque-1077 (Sigma, cat no. 10771). Isolated cells were seeded into the wells of a 96-well plate and incubated for 3 h with lipopolysaccharide (LPS). Following medium exchange, the compounds of the present disclosure were added (a single compound per well) and the cells were incubated for 30 min. Next, the cells were stimulated either with ATP (5 mM) or nigericin (10 μM) for 1 h and the cell culture media from the wells were collected for further analysis.
The release of IL-1β into the media was determined by a quantitative detection of IL-1β in the media using an IL-1β enzyme-linked immunosorbent assay (ELISA) Ready-SET-Go!, eBioscience cat. No. 88-7261-88. Briefly, in a first step, high affinity binding plates (Corning, Costar 9018 or NUNC Maxisorp Cat No. 44-2404) were coated overnight at 4° C. with specific capture antibody included in the kit (anti-human IL-1β ref. 14-7018-68). Subsequently, plates were blocked with blocking buffer for 1 h at room temperature (rt) and after washing with a buffer (PBS with 0.05% Tween-20) incubated with protein standard and culture media. After 2 h of incubation at rt, plates were washed and incubated with biotinylated detection antibody included in the kit (anti-human IL-1β Biotin ref. 33-7110-68) for 1 h at rt. Plates were washed and incubated with HRP-streptavidin for 30 min at rt and washed again. The signal was developed after addition of 3,3′,5,5′-tetramethylbenzidine-peroxidase (TMB) until colour appeared and the reaction was stopped by 2 M H2SO4. A microplate spectrophotometer (BioTek) was used to detect signals with 450 nm. The detection range of IL-1β ELISA was […].
Protocol B. PBMC were isolated from buffy coats by density gradient centrifugation on Histopaque-1077 (Sigma, cat no. 10771). Isolated cells were seeded into the wells (280,000 cells/well) of a 96-well plate and incubated for 3 h with lipopolysaccharide (LPS, 1 μg/mL diluted 1000× from a 1 mg/mL stock solution). The compounds of the present disclosure were added (a single compound per well) and the cells were incubated for 30 min. Next, the cells were stimulated with ATP (5 mM final concentration diluted 20× from a 100 mM stock solution) for 1 h and the cell culture media from the wells were collected for further analysis.
The release of IL-1β into the media was determined by quantitative detection of IL-1β in the media using HTRF®, CisBio cat. No. 62HIL1BPEH. Briefly, cell culture supernatant were dispensed directly into the assay plate containing antibodies labelled with the HTRF® donor and acceptor. A microplate spectrophotometer (BMG) was used to detect signals at 655 nm and 620 nm. The detection range of IL-1β HTRF® was 39-6500 pg/mL.
In general terms: An ELISA detects its analyte on a solid surface through an enzyme-linked reagent.

Assay [2] concerns IL-1β release upon NLRP3 activation in phorbol 12-myristate 13-acetate (PMA)-differentiated THP-1 cells. Kind of assay: THP-1 IC50 Determination Assay. The settings on record: Homo sapiens, inhibition of IL-1β release, LPS, nigericin, ELISA. In kind it is cell-based. How it is done: The compounds of the present disclosure were tested for their inhibitory activity against IL-1β release upon NLRP3 activation in phorbol 12-myristate 13-acetate (PMA)-differentiated THP-1 cells.
THP-1 cells stored in liquid nitrogen were thawed in a 37° C. water bath. The cells were added into complete RPMI 1640 medium (FBS (56 mL), 100× Penicillin-Streptomycin (5.6 mL) and 0.05 mM 2-Mercaptoethanol in RPMI 1640 Medium (500 mL)) and centrifuged for 5 min at 1000 rpm. The supernatant was discarded and the cells resuspended into new cell culture medium for culturing. Cells were cultured in cell culture medium and passaged every 3-4 days to maintain cell density between 4×10^5 and 1.5×10^6 cells/mL. The cells were diluted to 0.8×10^6 cells/mL and grown in a T150 flask with PMA (final concentration 5 ng/mL). The flask was incubated in a 37° C. incubator with a humidified atmosphere of 5% CO2 for −40 hours. After −40 hours of PMA differentiation, the flask was washed with DPBS. Cells were digested with Trypsin LE for about 5 min at room temperature, and digestion was terminated using complete RPMI 1640 medium. Cells were centrifuged and resuspended (1000 rpm, 3 min). The supernatant was discarded and cells washed with DPBS, centrifuged and resuspended cells (1000 rpm, 5 min). Cells were plated at 30,000 cells/well in a 384-well PP plate and treated with 25 ng/mL LPS solution diluted in serum-free medium (45 μL). The plate was incubated in a 37° C. incubator with a humidified atmosphere of 5% CO2 for 2 hours. Compounds (from 10 mM DMSO solution) were dispensed and serially diluted by 1:3 eight times, with final 0.5% DMSO concentration. NLRP3 inflammasome was activated with nigericin (5 μL), the plate was centrifuged (1000 rpm, 30 s) and incubated in a 37° C. incubator with a humidified atmosphere of […] for 2 hours. 35 μL/well of supernatant was removed and IL-1β levels determined by ELISA assay (Mabtech 3416-1H-20) according to the manufacturer's instructions.

Where a name gives a salt, the structure may show the parent alone.

As a reminder, the IC50 is the concentration that inhibits the measured activity by half. A high value points to weaker potency.

For `Cc1cc(Cl)cc(O)c1-c1cc2ccn(CC3CCN(C)CC3(F)F)c2nn1` (stereo not shown) [Compound 35, 5-Chloro-2-{7-[(3,3-difluoro-1-methylpiperidin-4-yl)methyl]-7H-pyrrolo[2,3-c]pyridazin-3-yl}-3-methylphenol hydrochloride], the IC50 lay within 100 to 300 nM in assay [1] and 300 to 1000 nM in assay [2].
Regarding `Cc1cc(C#N)cc(O)c1-c1cc2ccn(CC3CCN(C)CC3)c2nn1` [Compound 54, 3-Hydroxy-5-methyl-4-{7-[(1-methylpiperidin-4-yl)methyl]-7H-pyrrolo[2,3-c]pyridazin-3-yl}benzonitrile], the figures for the IC50 in assay [1] and in assay [2] were 100 to 300 nM and 300 to 1000 nM, respectively.
Turning to `Cc1cc(Cl)cc(O)c1-c1cc2ccn(CC(=O)N(C)C3COC3)c2nn1` [Compound 58, 2-[3-(4-Chloro-2-hydroxy-6-methylphenyl)-7H-pyrrolo[2,3-c]pyridazin-7-yl]-N-methyl-N-(oxetan-3-yl)acetamide], the IC50 in assay [1] and in assay [2] was 100 to 300 nM throughout.
For the compound `CC(=O)NCCn1ccc2cc(-c3c(C)cc(Cl)cc3O)nnc21` [Compound 44, N-{2-[3-(4-Chloro-2-hydroxy-6-methylphenyl)-7H-pyrrolo[2,3-c]pyridazin-7-yl]ethyl}acetamide], the IC50 in assay [1] and in assay [2] was 300 to 1000 nM each time.
Regarding `Cc1cc(Cl)cc(O)c1-c1cc2ccn(C[C@@H]3CCCCN3C)c2nn1` [Compound 46, 5-Chloro-3-methyl-2-(7-{[(2S)-1-methylpiperidin-2-yl]methyl}-7H-pyrrolo[2,3-c]pyridazin-3-yl)phenol hydrochloride], the IC50 in assay [1] fell in the range of 30 to 100 nM; in assay [2], 100 to 300 nM.
`Cc1cc(Cl)cc(O)c1-c1cc2ncn(CC3(F)CCN(C)CC3)c2nn1` [Compound 78, 5-Chloro-2-{7-[(4-fluoro-1-methylpiperidin-4-yl)methyl]-7H-imidazo[4,5-c]pyridazin-3-yl}-3-methylphenol hydrochloride]: the IC50 in assay [1] and in assay [2] was 30 to 100 nM throughout.
For `CNC(=O)CCn1ccc2cc(-c3c(C)cc(Cl)cc3O)nnc21` [Compound 20, 3-[3-(4-Chloro-2-hydroxy-6-methylphenyl)-7H-pyrrolo[2,3-c]pyridazin-7-yl]-N-methylpropanamide], the IC50 in assay [1] and in assay [2] was 300 to 1000 nM each time.
On to `Cc1cc(C(F)(F)F)cc(O)c1-c1cc2cc[nH]c2nn1` [Compound 5, 3-Methyl-2-{7H-pyrrolo[2,3-c]pyridazin-3-yl}-5-(trifluoromethyl)phenol], for which the IC50 in assay [1] and in assay [2] was 300 to 1000 nM in each case.
For the compound `Cc1cc(C(F)(F)F)cc(O)c1-c1cc2ccn(CC3CCN(C)CC3)c2nn1` [Compound 4, 3-Methyl-2-{7-[(1-methylpiperidin-4-yl)methyl]-7H-pyrrolo[2,3-c]pyridazin-3-yl}-5-(trifluoromethyl)phenol], the IC50 in assay [1] and in assay [2] was 30 to 100 nM each time.
Consider `Cc1cc(Cl)cc(O)c1-c1cc2ccn(CC(=O)N(C)[C@H]3CCOC3)c2nn1` [Compound 59, 2-[3-(4-Chloro-2-hydroxy-6-methylphenyl)-7H-pyrrolo[2,3-c]pyridazin-7-yl]-N-methyl-N-[(3S)-oxolan-3-yl]acetamide], for which the results for the IC50 in assay [1] and in assay [2] were 30 to 100 nM and 100 to 300 nM, respectively.
In the same order, the values of `Cc1cc(Cl)cc(O)c1-c1cc2ccn(CC3CCN(CC(F)F)CC3)c2nn1` [Compound 10, 5-Chloro-2-(7-{[1-(2,2-difluoroethyl)piperidin-4-yl]methyl}-7H-pyrrolo[2,3-c]pyridazin-3-yl)-3-methylphenol hydrochloride] are 100 to 300 nM and 100 to 300 nM.
With `Cc1cc(Cl)cc(O)c1-c1cc2ccn(CC3CCCCO3)c2nn1` (stereo not shown) [Compound 25, 5-Chloro-3-methyl-2-{7-[(oxan-2-yl)methyl]-7H-pyrrolo[2,3-c]pyridazin-3-yl}phenol], the IC50 in assay [1] and in assay [2] was 100 to 300 nM each time.
`Cc1cc(C)c(-c2cc3ncn(CC4CCN(C)CC4)c3nn2)c(O)c1` [Compound 76, 3,5-Dimethyl-2-{7-[(1-methylpiperidin-4-yl)methyl]-7H-imidazo[4,5-c]pyridazin-3-yl}phenol]: the IC50 in assay [1] and in assay [2] was 30 to 100 nM each time.
Regarding `COCCN1CCC(Cn2ccc3cc(-c4c(C)cc(Cl)cc4O)nnc32)CC1` [Compound 18, 5-Chloro-2-(7-{[1-(2-methoxyethyl)piperidin-4-yl]methyl}-7H-pyrrolo[2,3-c]pyridazin-3-yl)-3-methylphenol], the IC50 in assay [1] and in assay [2] was 100 to 300 nM throughout.
Turning to `Cc1cc(Cl)cc(O)c1-c1cc2ccn(CCN3CCN(C)CC3)c2nn1` [Compound 13, 5-Chloro-3-methyl-2-{7-[2-(4-methylpiperazin-1-yl)ethyl]-7H-pyrrolo[2,3-c]pyridazin-3-yl}phenol dihydrochloride], the IC50 in assay [1] and in assay [2] was 300 to 1000 nM throughout.
With `Cc1cc(Cl)cc(O)c1-c1cc2ccn(CC3CCN(CC(F)(F)F)CC3)c2nn1` [Compound 7, 5-Chloro-3-methyl-2-(7-{[1-(2,2,2-trifluoroethyl)piperidin-4-yl]methyl}-7H-pyrrolo[2,3-c]pyridazin-3-yl)phenol], the IC50 in assay [1] and in assay [2] was 300 to 1000 nM throughout.
Take `Cc1cc(Cl)cc(O)c1-c1cc2ccn(CCN3CCCCC3)c2nn1` [Compound 38, 5-Chloro-3-methyl-2-{7-[2-(piperidin-1-yl)ethyl]-7H-pyrrolo[2,3-c]pyridazin-3-yl}phenol hydrochloride]: the IC50 in assay [1] and in assay [2] was 300 to 1000 nM each time.
For `Cc1cc(C(F)(F)F)cc(O)c1-c1cc2ccn(CC3CCOCC3)c2nn1` [Compound 1, 3-Methyl-2-{7-[(oxan-4-yl)methyl]-7H-pyrrolo[2,3-c]pyridazin-3-yl}-5-(trifluoromethyl)phenol], the values for the IC50 in assay [1] and in assay [2] were 100 to 300 nM and 300 to 1000 nM, respectively.
For the compound `Cc1cc(Cl)cc(O)c1-c1cc2ccn(CC3CC4(C3)CN(C)C4)c2nn1` [Compound 52, 5-Chloro-3-methyl-2-[7-({2-methyl-2-azaspiro[3.3]heptan-6-yl}methyl)-7H-pyrrolo[2,3-c]pyridazin-3-yl]phenol hydrochloride], the figures for the IC50 in assay [1] and in assay [2] were 300 to 1000 nM and 100 to 300 nM, respectively.
Take `Cc1cc(Cl)cc(O)c1-c1cc2ccn(CCN3CCOCC3)c2nn1` [Compound 12, 5-Chloro-3-methyl-2-{7-[2-(morpholin-4-yl)ethyl]-7H-pyrrolo[2,3-c]pyridazin-3-yl}phenol hydrochloride]: the IC50 lay in the range of 300 to 1000 nM in assay [1] and 100 to 300 nM in assay [2].
